Experimental data: patent US9739791B2, “Methods for predicting and treating myocardial damage” (THE CLEVELAND CLINIC FOUNDATION, priority 2010, dated 2017)

Test system: infarct size after ischemia reperfusion (LAD ligation)
Assay: LAD ligation/reperfusion, infarct size as percent area at risk after CoQ10 pretreatment
Type: in vivo
Conditions: WT mice; CoQ10 ip 1 mg/kg/day for 3 days prior to ischemia reperfusion; compared to WT controls; p=0.15
Method: FIG. 4 is a plot comparing infarct size as a percentage of AAR in WT and ApoAI-null mice given saline or Coenzyme Q10 daily for 3 days prior to ischemia induced by 30 minutes of LAD ligation and 3 hours of reperfusion (data represent mean±SD; n=4-6 per group; *p<0.0001 compared to strain-matched NT control).
All animal protocols were approved by the Animal Research Committee, and all animals were housed in the Association for Assessment and Accreditation of Laboratory Animal Care International-approved animal facility of the Cleveland Clinic. Anterior wall MI (AMT) was performed as recently described (Askari, A. T. et al., J. Exp. Med. 197:615-624, 2003). Briefly, AMI was induced in eight 20- to 25-g male littermate wild-type (C57BL/6J), ApoA1 heterozygote (ApoA1^+/−) or knockout (ApoA1^−/−) mice by ligation of the LAD 7-0 Prolene. Blanching and dysfunction of the anterior wall verified LAD ligation. After 30 minutes of LAD ligation, microsurgical scissors were used to cut the knot in the ligature at the level of the myocardium, and animals subsequently underwent reperfusion for 3 hours. […] Animals were kept on ventilator for the entire 3 hours of reperfusion and subsequently analyzed for area at risk and infarct size using 1% solution of 2,3,5-triphenyltetrazolium chloride (TTC) at 37° C. […]

For `COC1=C(OC)C(=O)C(C/C=C(\C)CC/C=C(\C)CC/C=C(\C)CC/C=C(\C)CC/C=C(\C)CC/C=C(\C)CC/C=C(\C)CC/C=C(\C)CC/C=C(\C)CCC=C(C)C)=C(C)C1=O` [CoQ10, Coenzyme Q10], the “decrease in IS/% AAR” value was “non-significant trend”.
